Values of other authors as cited in patent US20040115266A1, “Oral itraconazole formulations and methods of making the same” (priority 2004, published 2004).

0.1 N Hydrochloric acid solubility (0.1 N Hydrochloric acid): < 6 micrograms per milliliter
water solubility (water): less than 1 microgram per milliliter
Compound: CCC(C)n1ncn(-c2ccc(N3CCN(c4ccc(OCC5COC(Cn6cncn6)(c6ccc(Cl)cc6Cl)O5)cc4)CC3)cc2)c1=O (single isomer, unassigned; (+)) [Itraconazole, (+)-cis-4-[4-[4-[4-[[2-(2,4-dichlorophenyl)-2-(1H-1,2,4-triazol-1-ylmethyl)-1,3-dioxolan-4-yl]methoxy]phenyl]-1-piperazinyl]phenyl]-2,4-dihydro-2-(1-methylpropyl)-3H-1,2,4-triazol-3-one]
